Columns and labels:
Mycobacterium leprae [1] = test: Anti-leprotic activity against rifampin-susceptible Mycobacterium leprae infected in armadillo assessed as bacterial counts in footpad at 6 mg/kg administered with food daily for 2 weeks (reference value: 125%); format: functional
Mycobacterium leprae [2] = test: Anti-leprotic activity against rifampicin-susceptible Mycobacterium leprae primary cultures at 4 weeks assessed as [3H]thymidine uptake per 5 times 10^7 cells at 0.2 mg/L incubated for 24 hrs (reference value: 1.05 +/- 0.16 pmol); format: functional
Mycobacterium leprae [3] = test: Anti-leprotic activity against rifampicin-susceptible Mycobacterium leprae primary cultures at 4 weeks assessed as [3H]thymidine uptake per 5 times 10^7 cells at 0.1 mg/L incubated for 24 hrs (reference value: 1.05 +/- 0.16 pmol); format: functional
Mycobacterium leprae [4] = test: Anti-leprotic activity against rifampicin-susceptible Mycobacterium leprae primary cultures at 4 weeks assessed as [3H]thymidine uptake per 5 times 10^7 cells at 0.3 mg/L incubated for 24 hrs (reference value: 1.05 +/- 0.16 pmol); format: functional
Mycobacterium leprae [5] = test: Inhibition of PGL1 synthesis in Mycobacterium leprae infected Swiss Webster mouse macrophages assessed as decrease in [U-14C]PA incorporation at 2 uM preincubated for 4 days post infection followed by [U-14C]PA addition and measured after 7 days by liquid scintillation counter analysis relative to control; format: functional
Mycobacterium leprae [6] = test: Anti-leprotic activity against rifampin-susceptible Mycobacterium leprae infected in BALB/c mouse assessed as ATP level per 10^6 Mycobacterium leprae in footpad at 6 mg/kg administered with food daily for 12 weeks by Shepard's kinetic method (reference value: 26.9 +/- 2.90 pg); format: functional
[7] = Plasma concentration in rifampin-susceptible Mycobacterium leprae infected in BALB/c mouse at 6 mg/kg administered with food daily for 12 weeks by high-pressure liquid chromatography analysis; format: ADME, organism-based; settings: po
Mycobacterium leprae [8] = test: Anti-leprotic activity against rifampicin-susceptible Mycobacterium leprae subcultures at 4 weeks assessed as ATP level per 10^7 cells at 0.2 mg/L measured by bioluminescence assay (reference value: 425 +/- 64 pg); format: functional
Mycobacterium leprae [9] = test: Anti-leprotic activity against rifampin-susceptible Mycobacterium leprae infected in BALB/c mouse assessed as ATP level in footpad at 6 mg/kg administered with food daily for 2 weeks by Shepard's kinetic method (reference value: 109%); format: functional
[10] = Plasma concentration in rifampin-susceptible Mycobacterium leprae infected in BALB/c mouse at 6 mg/kg administered with food daily for 8 weeks by high-pressure liquid chromatography analysis; format: ADME, organism-based; settings: po
Mycobacterium leprae [11] = test: Anti-leprotic activity against rifampicin-susceptible Mycobacterium leprae subcultures at 4 weeks assessed as [3H]thymidine uptake per 5 times 10^7 cells at 0.2 mg/L incubated for 24 hrs (reference value: 1.41 +/- 0.20 pmol); format: functional
[12] = Plasma concentration in rifampin-susceptible Mycobacterium leprae infected in BALB/c mouse at 6 mg/kg administered with food daily for 1 week by high-pressure liquid chromatography analysis; format: ADME, organism-based; settings: po
Mycobacterium leprae [13] = test: Anti-leprotic activity against rifampicin-susceptible Mycobacterium leprae primary cultures at 4 weeks assessed as ATP level per 10^7 cells at 0.2 mg/L measured by bioluminescence assay (reference value: 332 +/- 46 pg); format: functional
Mycobacterium leprae [14] = test: Anti-leprotic activity against rifampin-susceptible Mycobacterium leprae infected in armadillo assessed as bacterial counts in footpad at 6 mg/kg administered with food daily for 16 weeks (reference value: 226%); format: functional
Mycobacterium leprae [15] = test: Anti-leprotic activity against rifampin-susceptible Mycobacterium leprae infected in armadillo assessed as bacterial counts in footpad at 6 mg/kg administered with food daily for 8 weeks (reference value: 162%); format: functional
Mycobacterium leprae [16] = test: Anti-leprotic activity against rifampin-susceptible Mycobacterium leprae infected in BALB/c mouse assessed as ATP level per 10^6 Mycobacterium leprae in footpad at 6 mg/kg administered with food daily for 8 weeks by Shepard's kinetic method (reference value: 26.1 +/- 3.7 pg); format: functional
Mycobacterium leprae [17] = test: Anti-leprotic activity against rifampin-susceptible Mycobacterium leprae infected in BALB/c mouse assessed as ATP level in footpad at 6 mg/kg administered with food daily for 4 weeks by Shepard's kinetic method (reference value: 98%); format: functional
[18] = Plasma concentration in rifampin-susceptible Mycobacterium leprae infected in BALB/c mouse at 6 mg/kg administered with food daily for 2 weeks by high-pressure liquid chromatography analysis; format: ADME, organism-based; settings: po
Mycobacterium leprae [19] = test: Anti-leprotic activity against rifampicin-susceptible Mycobacterium leprae primary cultures at 4 weeks assessed as ATP level per 10^7 cells at 0.1 mg/L measured by bioluminescence assay (reference value: 332 +/- 46 pg); format: functional
Mycobacterium leprae [20] = test: Anti-leprotic activity against rifampin-susceptible Mycobacterium leprae infected in BALB/c mouse assessed as ATP level in footpad at 6 mg/kg administered with food daily for 1 week by Shepard's kinetic method (reference value: 102%); format: functional
Mycobacterium leprae [21] = test: Anti-leprotic activity against rifampicin-susceptible Mycobacterium leprae subcultures at 4 weeks assessed as ATP level per 10^7 cells at 0.1 mg/L measured by bioluminescence assay (reference value: 425 +/- 64 pg); format: functional
Mycobacterium leprae [22] = test: Anti-leprotic activity against rifampicin-susceptible Mycobacterium leprae subcultures at 4 weeks assessed as ATP level per 10^7 cells at 0.3 mg/L measured by bioluminescence assay (reference value: 425 +/- 64 pg); format: functional
Mycobacterium leprae [23] = test: Anti-leprotic activity against rifampicin-susceptible Mycobacterium leprae subcultures at 4 weeks assessed as [3H]thymidine uptake per 5 times 10^7 cells at 0.3 mg/L incubated for 24 hrs (reference value: 1.41 +/- 0.20 pmol); format: functional
[24] = Plasma concentration in rifampin-susceptible Mycobacterium leprae infected in BALB/c mouse at 6 mg/kg administered with food daily for 4 weeks by high-pressure liquid chromatography analysis; format: ADME, organism-based; settings: po
Mycobacterium leprae [25] = test: Anti-leprotic activity against rifampin-susceptible Mycobacterium leprae infected in armadillo assessed as bacterial counts in footpad at 6 mg/kg administered with food daily for 1 week (reference value: 110%); format: functional
Mycobacterium leprae [26] = test: Anti-leprotic activity against rifampin-susceptible Mycobacterium leprae infected in armadillo assessed as bacterial counts in footpad at 6 mg/kg administered with food daily for 12 weeks (reference value: 190%); format: functional
Mycobacterium leprae [27] = test: Anti-leprotic activity against rifampicin-susceptible Mycobacterium leprae primary cultures at 4 weeks assessed as ATP level per 10^7 cells at 0.3 mg/L measured by bioluminescence assay (reference value: 332 +/- 46 pg); format: functional
Mycobacterium leprae [28] = test: Anti-leprotic activity against rifampicin-susceptible Mycobacterium leprae subcultures at 4 weeks assessed as [3H]thymidine uptake per 5 times 10^7 cells at 0.1 mg/L incubated for 24 hrs (reference value: 1.41 +/- 0.20 pmol); format: functional
Mycobacterium leprae [29] = test: Anti-leprotic activity against rifampin-susceptible Mycobacterium leprae infected in BALB/c mouse assessed as ATP level per 10^6 Mycobacterium leprae in footpad at 6 mg/kg administered with food daily for 16 weeks by Shepard's kinetic method (reference value: 27.9 +/- 3.60 pg); format: functional
Mycobacterium leprae [30] = test: Anti-leprotic activity against rifampin-susceptible Mycobacterium leprae infected in armadillo assessed as bacterial counts in footpad at 6 mg/kg administered with food daily for 4 weeks (reference value: 141%); format: functional
Mycobacterium leprae [31] = test: Inhibition of PGL1 synthesis in Mycobacterium leprae infected Swiss Webster mouse macrophages assessed as decrease in [U-14C]PA incorporation at 0.2 uM preincubated for 4 days post infection followed by [U-14C]PA addition and measured after 7 days by liquid scintillation counter analysis relative to control; format: functional
Mycobacterium leprae [32] = test: Antimicrobial activity against Mycobacterium leprae assessed as microbial growth at 0.0938 ug/ml in presence of 0.2 ug/ml rifampin measured at 4 weeks (reference value: 147 +/- 19.1%); format: functional
Mycobacterium leprae [33] = test: Antimicrobial activity against Mycobacterium leprae assessed as fractional inhibitory concentration index at 0.0469 ug/ml in presence of 0.05 ug/ml rifabutin measured at 4 weeks; format: functional
Mycobacterium leprae [34] = test: Antimicrobial activity against Mycobacterium leprae assessed as fractional inhibitory concentration index at 0.0469 ug/ml in presence of 0.0062 ug/ml KRM-1648 measured at 4 weeks; format: functional
Mycobacterium leprae [35] = test: Antimicrobial activity against Mycobacterium leprae assessed as microbial growth at 0.0469 ug/ml in presence of 0.0062 ug/ml KRM-1648 measured at 4 weeks (reference value: 147 +/- 19.1%); format: functional
Mycobacterium leprae [36] = test: Antimicrobial activity against Mycobacterium leprae assessed as microbial growth at 0.0938 ug/ml in presence of 0.1 ug/ml rifampin measured at 4 weeks (reference value: 147 +/- 19.1%); format: functional
Mycobacterium leprae [37] = test: Antimicrobial activity against Mycobacterium leprae assessed as microbial growth at 0.0469 ug/ml in presence of 0.05 ug/ml rifabutin measured at 4 weeks (reference value: 147 +/- 19.1%); format: functional
Mycobacterium leprae [38] = test: Antimicrobial activity against Mycobacterium leprae assessed as microbial growth at 0.0469 ug/ml in presence of 0.0031 ug/ml KRM-1648 measured at 4 weeks (reference value: 147 +/- 19.1%); format: functional
Mycobacterium leprae [39] = test: Antimicrobial activity against Mycobacterium leprae assessed as microbial growth at 0.0469 ug/ml in presence of 0.025 ug/ml rifabutin measured at 4 weeks (reference value: 147 +/- 19.1%); format: functional
Mycobacterium leprae [40] = test: Antimicrobial activity against Mycobacterium leprae assessed as fractional inhibitory concentration index at 0.0938 ug/ml in presence of 0.2 ug/ml rifampin measured at 4 weeks; format: functional
Mycobacterium leprae [41] = test: Antimicrobial activity against Mycobacterium leprae assessed as microbial growth at 0.0469 ug/ml in presence of 0.2 ug/ml rifampin measured at 4 weeks (reference value: 147 +/- 19.1%); format: functional
Mycobacterium leprae [42] = test: Antimicrobial activity against Mycobacterium leprae assessed as microbial growth at 0.375 ug/ml in presence of 0.0062 ug/ml KRM-1648 measured at 4 weeks (reference value: 147 +/- 19.1%); format: functional
Mycobacterium leprae [43] = test: Antimicrobial activity against Mycobacterium leprae assessed as microbial growth at 0.375 ug/ml in presence of 0.025 ug/ml rifabutin measured at 4 weeks (reference value: 147 +/- 19.1%); format: functional
Mycobacterium leprae [44] = test: Antimicrobial activity against Mycobacterium leprae assessed as microbial growth at 0.375 ug/ml in presence of 0.05 ug/ml rifabutin measured at 4 weeks (reference value: 147 +/- 19.1%); format: functional
Mycobacterium leprae [45] = test: Antimicrobial activity against Mycobacterium leprae assessed as fractional inhibitory concentration index at 0.375 ug/ml in presence of 0.0125 ug/ml KRM-1648 measured at 4 weeks; format: functional
Mycobacterium leprae [46] = test: Antimicrobial activity against Mycobacterium leprae assessed as microbial growth at 0.75 ug/ml in presence of 0.2 ug/ml rifampin measured at 4 weeks (reference value: 147 +/- 19.1%); format: functional
Mycobacterium leprae [47] = test: Antimicrobial activity against Mycobacterium leprae assessed as microbial growth at 0.375 ug/ml in presence of 0.0125 ug/ml KRM-1648 measured at 4 weeks (reference value: 147 +/- 19.1%); format: functional
Mycobacterium leprae [48] = test: Antimicrobial activity against Mycobacterium leprae assessed as fractional inhibitory concentration index at 0.75 ug/ml in presence of 0.2 ug/ml rifampin measured at 4 weeks; format: functional
Mycobacterium leprae [49] = test: Antimicrobial activity against Mycobacterium leprae assessed as fractional inhibitory concentration index at 0.375 ug/ml in presence of 0.05 ug/ml rifabutin measured at 4 weeks; format: functional
Mycobacterium leprae [50] = test: Antimicrobial activity against Mycobacterium leprae assessed as microbial growth at 0.75 ug/ml in presence of 0.1 ug/ml rifampin measured at 4 weeks (reference value: 147 +/- 19.1%); format: functional

CO[C@H]1/C=C/O[C@@]2(C)Oc3c(C)c(O)c4c(c3C2=O)C2=NC3(CCN(CC(C)C)CC3)NC2=C(NC(=O)/C(C)=C\C=C\[C@H](C)[C@H](O)[C@@H](C)[C@@H](O)[C@@H](C)[C@H](OC(C)=O)[C@@H]1C)C4=O [RIFABUTIN]
Activity (Mycobacterium leprae [1]): 98%
Activity (Mycobacterium leprae [2]): 0 pmol
Activity (Mycobacterium leprae [3]): 0.65 pmol
Activity (Mycobacterium leprae [4]): 0 pmol
inhibition at 2 µM (Mycobacterium leprae [5]): 96%
Activity (Mycobacterium leprae [6]): 0 pg
concentration at 2016 h [7]: 90 ng/mL
Activity (Mycobacterium leprae [8]): 0 pg
Activity (Mycobacterium leprae [9]): 21%
concentration at 1344 h [10]: 52 ng/mL
Activity (Mycobacterium leprae [11]): 0.49 pmol
concentration at 168 h [12]: 380 ng/mL
Activity (Mycobacterium leprae [13]): 0 pg
Activity (Mycobacterium leprae [14]): 77%
Activity (Mycobacterium leprae [15]): 89%
Activity (Mycobacterium leprae [16]): 0.049 pg
Activity (Mycobacterium leprae [17]): 9%
concentration at 336 h [18]: 450 ng/mL
Activity (Mycobacterium leprae [19]): 192 pg
Activity (Mycobacterium leprae [20]): 72%
Activity (Mycobacterium leprae [21]): 127 pg
Activity (Mycobacterium leprae [22]): 0 pg
Activity (Mycobacterium leprae [23]): 0 pmol
concentration at 672 h [24]: 510 ng/mL
Activity (Mycobacterium leprae [25]): 101%
Activity (Mycobacterium leprae [26]): 83%
Activity (Mycobacterium leprae [27]): 0 pg
Activity (Mycobacterium leprae [28]): 0 pmol
Activity (Mycobacterium leprae [29]): 0 pg
Activity (Mycobacterium leprae [30]): 94%
inhibition at 0.2 µM (Mycobacterium leprae [31]): 84%

N[C@@H]1CN(c2c(F)cc3c(=O)c(C(=O)O)cn([C@@H]4C[C@@H]4F)c3c2Cl)CC12CC2 [SITAFLOXACIN ANHYDROUS]
Activity (Mycobacterium leprae [32]): 0%
fractional inhibitory concentration index (FICI) (Mycobacterium leprae [33]): 0.5
fractional inhibitory concentration index (FICI) (Mycobacterium leprae [34]): 0.375
Activity (Mycobacterium leprae [35]): 0%
Activity (Mycobacterium leprae [36]): 124%
Activity (Mycobacterium leprae [37]): 0%
Activity (Mycobacterium leprae [38]): 89%
Activity (Mycobacterium leprae [39]): 141%
fractional inhibitory concentration index (FICI) (Mycobacterium leprae [40]): 1
Activity (Mycobacterium leprae [41]): 138%

CC1COc2c(N3CCN(C)CC3)c(F)cc3c(=O)c(C(=O)O)cn1c23 (stereo not given) [OFLOXACIN]
Activity (Mycobacterium leprae [42]): 124%
Activity (Mycobacterium leprae [43]): 121%
Activity (Mycobacterium leprae [44]): 0%
fractional inhibitory concentration index (FICI) (Mycobacterium leprae [45]): 0.5
Activity (Mycobacterium leprae [46]): 0%
Activity (Mycobacterium leprae [47]): 0%
fractional inhibitory concentration index (FICI) (Mycobacterium leprae [48]): 1
fractional inhibitory concentration index (FICI) (Mycobacterium leprae [49]): 0.5
Activity (Mycobacterium leprae [50]): 72%
